In brackets after ≈: the same amount, converted by molar mass.
Tested on: M17-SYNwt cells
Experiment: α-synuclein cytotoxicity assay (LDH leakage from paraquat-treated α-synuclein over-expressing neuroblastoma cells)
Type: cell-based, human
Conditions: for EC50: Homo sapiens, Neuroblastoma cell, 10 point curves in duplicate; for EC50 / %I: paraquat 32 mM, 40 hours, LDH release; for %I: percent inhibition of synuclein cytotoxicity at most effective concentration of test compound, relative to untreated paraquat cells
Summary of the method: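 M17 neuroblastoma cells over-expressing wild-type α-synuclein were challenged with paraquat, and cytotoxicity was read as LDH release. Protection was expressed as percent reduction of paraquat-induced LDH release relative to untreated paraquat cells and control cells. Actives were retested in 10-point duplicate dose responses.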

Row | SMILES | EC50 | %I | LDH activity in the medium (Figure 2, dose response in paraquat-treated M17-SYNwt cells)
1 | Cc1ccc(Cc2nsc(N3CCN(C(=O)c4ccc5c(c4)OCO5)C(C)C3)n2)cc1 (stereo not shown) [Compound 161, 1-(1,3-benzodioxol-5-ylcarbonyl)-4-[3-(4-methylbenzyl)-1,2,4-thiadiazol-5-yl]-2-methyl+B176piperazine] | 3.36 mg/L (≈ 7.7 µM) | 101% | 
2 | COc1ccccc1C(=O)N1CCN(c2nc(Cc3ccc(F)cc3)ns2)CC1C (stereo not shown) [Compound 133, 1-(2-methoxybenzoyl)-4-[3-(4-fluorobenzyl)-1,2,4-thiadiazol-5-yl]-2-methylpiperazine] | 0.29 mg/L (≈ 0.68 µM) | 118% | 
3 | Cc1ccc(C(=O)NCCN2CCN(c3nc(Cc4ccc(F)cc4)ns3)CC2)cc1 [Compound 101, 4-methyl-N-{2-[4-[3-(4-fluorobenzyl)-1,2,4-thiadiazol-5-yl]piperazin-1-yl]ethyl}benzamide] | 1.94 mg/L (≈ 4.41 µM) | 68% | 
4 | COc1ccc(S(=O)(=O)N2CCN(c3nc(Cc4cccc(C)c4)ns3)CC2)cc1 [Compound 201] | 0.0021 mg/L (≈ 0.00472 µM) | 97% | 
5 | Cc1ccc(Cc2nsc(N3CCN(C(=O)c4ccccc4)CC3)n2)cc1 [Compound 158, 1-benzoyl-4-[3-(4-methylbenzyl)-1,2,4-thiadiazol-5-yl]piperazine] | 2.1 mg/L (≈ 5.55 µM) | 57% | 
6 | CCc1ccc(C(=O)N2CCN(c3nc(Cc4ccc(F)cc4)ns3)CC2C)cc1 (stereo not shown) [Compound 116, 1-(4-ethylbenzoyl)-4-[3-(4-fluorobenzyl)-1,2,4-thiadiazol-5-yl]-2-methylpiperazine] | 0.0522 mg/L (≈ 0.123 µM) | 71% | 
7 | Cc1ccc(Cc2nsc(N3CCN(S(=O)(=O)c4cccc5ccccc45)C(C)C3)n2)cc1 (stereo not shown) [Compound 41] | 0.53 mg/L (≈ 1.11 µM) | 54% | 
8 | Cc1ccc(Cc2nsc(N3CCN(S(=O)(=O)c4ccc(F)cc4)CC3)n2)cc1 [Compound 57, 1-[4-fluorophenylsulfonyl]-4-[3-(4-methylbenzyl)-1,2,4-thiadiazol-5-yl]piperazine] | 0.0104 mg/L (≈ 0.024 µM) | 88% | 
9 | Cc1ccc(Cc2nsc(N3CCN(S(=O)(=O)c4ccc(F)cc4)C(C)C3)n2)cc1 (stereo not shown) [Compound 58, 1-[4-fluorophenylsulfonyl]-4-[3-(4-methylbenzyl)-1,2,4-thiadiazol-5-yl]-2-methylpiperazine] | 0.061 mg/L (≈ 0.137 µM) | 58% | 
10 | CCOc1ccc(S(=O)(=O)N2CCN(c3nc(Cc4ccc(F)cc4)ns3)CC2)cc1 [Compound 196, 1-[4-ethoxyphenylsulfonyl]-4-[3-(4-fluoro-benzyl)-1,2,4-thiadiazol-5-yl]piperazine] | 0.0081 mg/L (≈ 0.0175 µM) | 42% | 
11 | COc1ccc(NC(=O)N2CCN(c3nc(Cc4ccc(F)cc4)ns3)CC2)c(OC)c1 [Compound 27, N-(2,4-dimethoxyphenyl)-4-[3-(4-fluorobenzyl)-1,2,4-thiadiazol-5-yl]piperazine-1-carboxamide] |  | 67% | 
12 | Cc1ccc(Cc2nsc(N3CCN(S(=O)(=O)c4ccc(Cl)cc4)C(C)C3)n2)cc1 (stereo not shown) [Compound 34, 1-[4-chlorophenylsulfonyl]-4-[3-(4-methylbenzyl)-1,2,4-thiadiazol-5-yl]-2-methylpiperazine] | 0.0657 mg/L (≈ 0.142 µM) | 66% | 
13 | COc1ccc(C(=O)N2CCN(c3nc(Cc4ccc(F)cc4)ns3)CC2C)c(OC)c1 (stereo not shown) [Compound 136, 1-(2,4-dimethoxybenzoyl)-4-[3-(4-fluorobenzyl)-1,2,4-thiadiazol-5-yl]-2-methylpiperazine] | 0.34 mg/L (≈ 0.745 µM) | 83% | 
14 | CCS(=O)(=O)N1CCN(c2nc(Cc3ccc(Cl)cc3)ns2)CC1 [Compound 84, 1-(ethylsulfonyl)-4-[3-(4-chlorobenzyl)-1,2,4-thiadiazol-5-yl]piperazine] | 3.48 mg/L (≈ 8.99 µM) | 53% | 
15 | Cc1ccc(Cc2nsc(N3CCN(S(=O)(=O)c4ccc(Br)cc4)CC3)n2)cc1 [Compound 64, 1-[4-bromophenylsulfonyl]-4-[3-(4-methylbenzyl)-1,2,4-thiadiazol-5-yl]piperazine] |  | 58% | 
16 | Cc1ccc(Cc2nsc(N3CCN(C(=O)c4ccccc4)C(C)C3)n2)cc1 (stereo not shown) [Compound 169, 1-benzoyl-4-[3-(4-methylbenzyl)-1,2,4-thiadiazol-5-yl]-2-methylpiperazine] |  | 91% | 
17 | O=S(=O)(c1ccccc1)N1CCN(c2nc(Cc3ccc(F)cc3)ns2)CC1 [Compound 198, 1-phenylsulfonyl-4-[3-(4-fluoro-benzyl)-1,2,4-thiadiazol-5-yl]piperazine] | 0.146 mg/L (≈ 0.349 µM) | 25% | 
18 | Fc1ccc(Cc2nsc(N3CCN(c4cccc(C(F)(F)F)c4)CC3)n2)cc1 [Compound 188, 1-(3-trifluoromethylphenyl)-4-[3-(4-fluorobenzyl)-1,2,4-thiadiazol-5-yl]piperazine] |  | 96% | 
19 | O=C(CCc1ccccc1)N1CCN(c2nc(Cc3ccc(F)cc3)ns2)CC1 [Compound 90, 1-(3-phenylpropanoyl)-4-[3-(4-fluorobenzyl)-1,2,4-thiadiazol-5-yl]piperazine] | 1.41 mg/L (≈ 3.43 µM) | 73% | 
20 | O=C(c1cc(Cl)cc(Cl)c1)N1CCN(c2nc(Cc3ccc(F)cc3)ns2)CC1 [Compound 137, 1-(3,5-dichlorobenzoyl)-4-[3-(4-fluorobenzyl)-1,2,4-thiadiazol-5-yl]piperazine] | 0.35 mg/L (≈ 0.775 µM) | 68% | 
21 | Cc1ccc(C(=O)N2CCN(c3nc(Cc4ccc(F)cc4)ns3)CC2C)cc1 (stereo not shown) [Compound 139, 1-(4-methylbenzoyl)-4-[3-(4-fluorobenzyl)-1,2,4-thiadiazol-5-yl]-2-methylpiperazine] | 0.4 mg/L (≈ 0.974 µM) | 87% | 
22 | O=C(Nc1ccccc1C(F)(F)F)N1CCN(c2nc(Cc3ccc(F)cc3)ns2)CC1 [Compound 17, N-(2-trifluoromethylphenyl)-4-[3-(4-fluorobenzyl)-1,2,4-thiadiazol-5-yl]piperazine-1-carboxamide] |  | 46% | 
23 | Cc1ccc(Cc2nsc(N3CCN(C(=O)c4ccc(F)cc4)C(C)C3)n2)cc1 (stereo not shown) [Compound 151, 1-(4-fluorobenzoyl)-4-[3-(4-methylbenzyl)-1,2,4-thiadiazol-5-yl]-2-methylpiperazine] | 1.14 mg/L (≈ 2.78 µM) | 73% | 
24 | CC1CN(c2nc(Cc3ccccc3)ns2)CCN1C(=O)c1ccc(F)cc1 (stereo not shown) [Compound 154, 1-(4-fluorobenzoyl)-4-[3-benzyl-1,2,4-thiadiazol-5-yl]-2-methylpiperazine] | 1.58 mg/L (≈ 3.98 µM) | 75% | 
25 | COc1cccc(Cc2nsc(N3CCN(S(=O)(=O)c4ccc(Br)cc4)CC3)n2)c1 [Compound 207] | 0.028 mg/L (≈ 0.055 µM) | 83% | 
26 | Cc1ccccc1N1CCN(c2nc(Cc3ccc(F)cc3)ns2)CC1 [Compound 185, 1-(2-methylphenyl)-4-[3-(4-fluorobenzyl)-1,2,4-thiadiazol-5-yl]piperazine] | 0.38 mg/L (≈ 1.03 µM) | 114% | 
27 | O=C(Nc1ccccc1)N1CCN(c2nc(Cc3ccc(F)cc3)ns2)CC1 [Compound 13, N-phenyl-4-[3-(4-fluorobenzyl)-1,2,4-thiadiazol-5-yl]piperazine-1-carboxamide] | 1.23 mg/L (≈ 3.09 µM) | 71% | 
28 | Cc1cccc(C)c1NC(=O)N1CCN(c2nc(Cc3ccc(F)cc3)ns2)CC1C (stereo not shown) [Compound 19, N-(2,6-dimethylphenyl)-4-[3-(4-fluorobenzyl)-1,2,4-thiadiazol-5-yl]-2-methylpiperazine-1-carboxamide] | 0.2 mg/L (≈ 0.455 µM) | 95% | able, in a dose-dependent manner, to reduce LDH activity in the medium

— patent EP1981504B1, “THIADIAZOLE DERIVATIVES FOR THE TREATMENT OF NEURO DEGENERATIVE DISEASES” (NV reMYND, priority 2006, dated 2007)
